Values quoted from earlier work, collected in patent US20230091009A1, “METHOD FOR PROMOTING GROWTH OF GAS-FERMENTED MICROORGANISMS” (HARBIN INSTITUTE OF TECHNOLOGY, SHENZHEN, priority 2021, published 2023).

Conditions: ambient conditions, even in a supersaturated state

For `[HH]` [hydrogen], the solubility in water is given as “about 0.79 mmol/l”.
